The values that follow come from patent US10526322B2, “Inhibitors of kidney-type glutaminase, GLS-1” (CORNELL UNIVERSITY, priority 2014, dated 2020).

For test [1], the target named is T1, monomeric GAC (D391K, K316E, R459E) (Mus musculus, UniProt D3Z7P3, D391K/K316E/R459E).
T1 construct: (residues 72-603) was cloned into a pET23a vector; His-tag with thrombin cleavage site (N); made in house
T1 sequence (D3Z7P3 72-603 isoform D3Z7P3-2 K316E/D391K/R459E): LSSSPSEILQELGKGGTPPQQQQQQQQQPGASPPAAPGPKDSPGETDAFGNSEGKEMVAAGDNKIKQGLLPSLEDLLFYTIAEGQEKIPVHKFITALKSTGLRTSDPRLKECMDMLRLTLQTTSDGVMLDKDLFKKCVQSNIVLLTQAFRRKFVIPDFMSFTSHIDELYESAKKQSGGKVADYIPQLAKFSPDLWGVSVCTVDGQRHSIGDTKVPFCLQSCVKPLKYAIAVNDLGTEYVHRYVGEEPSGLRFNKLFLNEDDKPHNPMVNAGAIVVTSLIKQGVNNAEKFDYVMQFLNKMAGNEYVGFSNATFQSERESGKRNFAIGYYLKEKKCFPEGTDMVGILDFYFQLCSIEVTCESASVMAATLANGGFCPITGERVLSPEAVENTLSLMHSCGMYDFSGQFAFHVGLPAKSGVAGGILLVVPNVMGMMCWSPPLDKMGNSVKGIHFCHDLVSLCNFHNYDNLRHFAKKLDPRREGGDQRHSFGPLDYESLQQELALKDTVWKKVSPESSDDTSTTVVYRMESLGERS
The experiment in a line: 968 binding to GAC mutants, quenching of 488 fluorescence. Conditions: 10 nM total monomer. The protocol: Real-time fluorescence monitoring of 968 binding and GAC activity through production of NADH was performed on a Varian Cary Eclipse Fluorometer, whereas small molecule inhibition and binding titrations were performed in a 96-well format in a Tecan Saphire absorbance and fluorescence plate reader. Samples for monitoring real-time binding of 968 to 488-GAC were prepared by adding 10 μL of varying concentrations of 968 prepared in DMSO to an equilibrated 1 mL sample of 10 nM 488-GAC, while observing 488 fluorescence (490 nm excitation/520 nm emission). […] WT GAC (10 nM) was added and allowed to equilibrate 2 minutes before monitoring the fluorescence emission of 488-GAC (490 nm excitation, 520 nm emission) and NADH (340 nm excitation, 490 nm emission). […] The activity of GAC was measured in a coupled assay, by monitoring the NADH produced by glutamate dehydrogenase, which converts the product of the glutaminase-catalyzed reaction, glutamate, to α-ketoglutarate and ammonia by reducing NAD+ to NADH. Because solutions containing glutamine undergo non-enzymatic degradation to glutamate, samples were further analyzed by […] under identical experimental conditions. […]

In test [2] the target is T2, K316E/D391K/R459E GAC mutant (Mus musculus, UniProt D3Z7P3, D391K/K316E/R459E).
T2 construct: (residues 72-603) was cloned into a pET23a vector; made in house
T2 sequence (D3Z7P3 72-603 isoform D3Z7P3-2 K316E/D391K/R459E): T1 sequence (D3Z7P3 72-603 isoform D3Z7P3-2 K316E/D391K/R459E)
In words: In vitro photo cross linking of SU-22 and purification of the conjugate. It is filed as binding. The protocol: Glutaminase proteins of the WT sequence, or containing the mutations D391K alone, or the mutations K316E/D391K/R459E, were purified as detailed in Example 3 supra. These glutaminase proteins were incubated with increasing concentrations of the compound SU-22, and excited with a hand held UV lamp for 120 seconds. Immediately following UV exposure, samples were loaded onto a 4-20% Tris-Glycine polyacrylamide gel after the addition of SDS-PAGE sample buffer (50 mM Tris-HCl (pH=6.8), 2% SDS, 10% glycerol, 1% β-mercaptoethanol, 12.5 mM EDTA, 0.02% bromophenol blue), and visualized on a UV light box.
Conditions of in vitro cross linking of WT GAC, and the K316E/D391K/R459E GAC mutant were adapted for efficient cross linking and purification of the cross linked protein product. WT GAC and the K316E/D391K/R459E GAC mutant, both containing the N-terminal His-tag, were diluted to a concentration of 100 nM in 20 mM Tris-HCl (pH=8.6) 100 mM NaCl, upon which 10 μM of SU-22 was added. […] The purified cross linked protein was then concentrated using spin columns with a 30 kD molecular weight cutoff and quantified using UV-vis spectroscopy, where the protein was quantified using the A280 (ε280=38,850 M−1 cm−1) and the cross-linked SU-22 using the A350 (ε350=18,900 M−1 cm−1). […]

In the case of `CN(C)c1ccc(C2Nc3ccc4ccccc4c3C3=C2C(=O)CC(C)(C)C3)cc1Br` (stereo not drawn) [Compound 968], in test [1], the “affinity for 968 compared with WT 488-GAC and dimeric GAC (D391K)” value was “highest affinity”.

For the compound `CC1(C)CC(=O)C2=C(C1)c1c(ccc3cc4ccccc4cc13)NC2c1ccc(N=[N+]=[N-])cc1` (stereo not drawn) [SU-22], the “ratio of cross linked SU-22 to protein” value in test [2] (100 nM K316E/D391K/R459E GAC, 10 μM SU-22, UV, A350/A280) was found to be 0.78. Moreover, in test [2] (UV exposure, SDS-PAGE), the “efficiency of cross linking compared with dimer (D391K) or WT GAC” value was “more efficient”.
